Results taken from patent US7998965B2, “Glutamate aggrecanase inhibitors” (Wyeth LLC, priority 2005, dated 2011).
Where two headings read alike, the source gives them in different places.

Experiments:
MMP-12 = MMP-12 (Homo sapiens, UniProt P39900); assay: MMP-12 of Table 3; type: biochemical; settings: unit inferred
[1] = molecular target: T1, purified recombinant human Aggrecanase-2 (Ag2t-Phe628-Strep) (Homo sapiens, UniProt Q9UNA0); assay: In vitro fluorescence screen for Aggrecanase-2 inhibitors; type: biochemical; settings: for IC50: read-out: Agg 2 IC50; for Ki: read-out: Ki Agg2
T1 construct: the form used is denoted as Ag2t-Phe628-Strep (MW=41,737)
T1 sequence (Q9UNA0 262-628): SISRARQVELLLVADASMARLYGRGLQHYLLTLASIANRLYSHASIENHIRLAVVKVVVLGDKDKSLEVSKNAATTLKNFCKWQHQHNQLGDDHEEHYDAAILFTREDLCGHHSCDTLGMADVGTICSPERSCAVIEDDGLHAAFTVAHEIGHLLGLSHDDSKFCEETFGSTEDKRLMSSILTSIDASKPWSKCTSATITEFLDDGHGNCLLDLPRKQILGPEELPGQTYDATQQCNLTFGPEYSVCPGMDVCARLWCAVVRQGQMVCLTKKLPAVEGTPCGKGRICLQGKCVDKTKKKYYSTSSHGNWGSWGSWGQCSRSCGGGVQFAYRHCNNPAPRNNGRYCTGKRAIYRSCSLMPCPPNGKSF

MMP-8 = MMP-8 (Homo sapiens, UniProt P22894); assay: MMP-8 of Table 3; type: biochemical; settings: unit inferred
recombinant human MMP-2 = molecular target: T2, recombinant human MMP-2 (Homo sapiens, UniProt P08253); assay: In vitro fluorescence assay of MMP-2 activity
T2 sequence (P08253 110-660): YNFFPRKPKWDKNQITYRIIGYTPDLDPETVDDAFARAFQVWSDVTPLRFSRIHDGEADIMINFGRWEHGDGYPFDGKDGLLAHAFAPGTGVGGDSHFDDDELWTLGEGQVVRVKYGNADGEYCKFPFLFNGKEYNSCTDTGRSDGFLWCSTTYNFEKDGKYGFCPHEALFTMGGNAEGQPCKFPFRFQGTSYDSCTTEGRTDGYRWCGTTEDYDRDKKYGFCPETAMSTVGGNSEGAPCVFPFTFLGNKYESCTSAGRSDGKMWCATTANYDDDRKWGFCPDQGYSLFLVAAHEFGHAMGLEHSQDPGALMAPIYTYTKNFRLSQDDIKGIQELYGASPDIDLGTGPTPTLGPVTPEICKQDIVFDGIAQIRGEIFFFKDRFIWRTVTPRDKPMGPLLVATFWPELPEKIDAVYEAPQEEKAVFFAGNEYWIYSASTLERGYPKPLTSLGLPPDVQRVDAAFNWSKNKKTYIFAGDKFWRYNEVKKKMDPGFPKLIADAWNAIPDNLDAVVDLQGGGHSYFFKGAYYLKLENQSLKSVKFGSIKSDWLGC

[2] = molecular target: T3, purified recombinant human Aggrecanase-1 (rAgg1) (Homo sapiens, UniProt O75173); assay: In vitro fluorescence screen for Aggrecanase-1 inhibitors; type: biochemical; settings: for IC50: read-out: Agg1 IC50
T3 sequence (O75173 213-837): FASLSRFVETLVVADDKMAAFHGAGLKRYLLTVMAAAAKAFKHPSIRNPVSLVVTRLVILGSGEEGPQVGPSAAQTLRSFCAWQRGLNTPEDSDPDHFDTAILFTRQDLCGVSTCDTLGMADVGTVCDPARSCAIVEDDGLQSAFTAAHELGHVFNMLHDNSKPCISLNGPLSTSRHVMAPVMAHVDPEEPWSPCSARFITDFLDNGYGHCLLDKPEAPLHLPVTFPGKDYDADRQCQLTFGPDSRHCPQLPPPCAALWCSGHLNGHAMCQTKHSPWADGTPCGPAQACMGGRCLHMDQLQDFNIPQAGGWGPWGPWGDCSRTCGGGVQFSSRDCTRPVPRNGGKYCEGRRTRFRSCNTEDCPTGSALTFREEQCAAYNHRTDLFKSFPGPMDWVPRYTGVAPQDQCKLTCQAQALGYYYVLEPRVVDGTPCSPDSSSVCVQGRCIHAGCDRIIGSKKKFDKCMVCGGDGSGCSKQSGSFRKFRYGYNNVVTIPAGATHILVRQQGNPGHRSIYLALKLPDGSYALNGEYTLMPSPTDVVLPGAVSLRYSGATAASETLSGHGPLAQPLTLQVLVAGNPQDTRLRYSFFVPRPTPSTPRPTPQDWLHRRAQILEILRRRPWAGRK

MMP-1 = molecular target: T4, MMP-1 (Homo sapiens, UniProt P03956); assay: MMP-1 of Table 1; type: biochemical; settings: unit inferred
T4 sequence (P03956 100-469): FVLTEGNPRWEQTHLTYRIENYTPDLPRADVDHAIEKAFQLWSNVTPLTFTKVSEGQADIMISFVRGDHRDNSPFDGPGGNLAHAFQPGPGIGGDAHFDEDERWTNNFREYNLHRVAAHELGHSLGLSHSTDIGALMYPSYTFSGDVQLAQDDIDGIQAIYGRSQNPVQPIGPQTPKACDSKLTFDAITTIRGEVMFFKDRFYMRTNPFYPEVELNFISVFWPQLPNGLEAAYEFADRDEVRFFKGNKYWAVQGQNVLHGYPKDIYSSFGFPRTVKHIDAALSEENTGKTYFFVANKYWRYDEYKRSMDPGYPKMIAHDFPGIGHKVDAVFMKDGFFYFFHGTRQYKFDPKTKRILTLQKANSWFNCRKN

[3] = tested on: bovine articular cartilage treated with Interleukin 1 alpha (IL-1α); assay: Bovine articular cartilage explant cultures: inhibition of degradation of proteoglycan; type: cell-based; settings: inhibitory effect expressed as percentage, concentration not printed
Procedure, shortened: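 Bovine metacarpal cartilage discs (6 mm), equilibrated in serum-free DMEM-based medium, were treated with 5 ng/ml IL-1 plus compound (working solutions 0.1-10 μg/ml), with medium collected and replaced on days 1, 2 and 3. Released proteoglycan was measured by DMMB absorbance at 520 nm against chondroitin sulphate standards, expressed as μg per mg cartilage, and inhibition given as percentage.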

[4] = molecular target: T5, recombinant human catalytic domain of MMP-13 (Homo sapiens, UniProt P45452); assay: In vitro fluorescence assay of MMP-13 activity; type: biochemical; settings: Table 1; unit inferred
T5 construct: catalytic domain of MMP-13 (165 amino acids, residues 104-268, 19 kDa)

[5] = molecular target: T6, recombinant human catalytic domain of MMP-14 (Homo sapiens, UniProt P50281); assay: In vitro fluorescence assay of MMP-14 activity; type: biochemical; settings: Table 1; unit inferred
T6 construct: 177 amino acids corresponding to Tyr89-Gly265 of mature human enzyme; purchased Chemicon International, Inc. CC1041

[6] = Table 1, first of two columns headed bovine
[7] = Table 1, second of two columns headed bovine
[8] = Table 1, enzyme not given, column follows Agg1 IC50, read-out: Ki

Chain of MMP-12 (P39900 106-470): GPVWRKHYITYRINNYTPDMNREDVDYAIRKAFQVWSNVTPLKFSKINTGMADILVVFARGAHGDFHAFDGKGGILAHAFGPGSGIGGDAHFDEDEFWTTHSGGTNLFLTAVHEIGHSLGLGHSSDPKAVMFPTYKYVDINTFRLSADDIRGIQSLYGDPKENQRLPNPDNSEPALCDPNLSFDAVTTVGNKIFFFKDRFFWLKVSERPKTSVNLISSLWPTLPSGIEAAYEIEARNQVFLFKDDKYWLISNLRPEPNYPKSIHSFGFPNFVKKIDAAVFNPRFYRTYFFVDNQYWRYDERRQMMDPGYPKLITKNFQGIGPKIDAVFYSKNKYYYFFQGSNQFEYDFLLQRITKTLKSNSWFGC
Chain of MMP-8 (P22894 101-467, species assumed): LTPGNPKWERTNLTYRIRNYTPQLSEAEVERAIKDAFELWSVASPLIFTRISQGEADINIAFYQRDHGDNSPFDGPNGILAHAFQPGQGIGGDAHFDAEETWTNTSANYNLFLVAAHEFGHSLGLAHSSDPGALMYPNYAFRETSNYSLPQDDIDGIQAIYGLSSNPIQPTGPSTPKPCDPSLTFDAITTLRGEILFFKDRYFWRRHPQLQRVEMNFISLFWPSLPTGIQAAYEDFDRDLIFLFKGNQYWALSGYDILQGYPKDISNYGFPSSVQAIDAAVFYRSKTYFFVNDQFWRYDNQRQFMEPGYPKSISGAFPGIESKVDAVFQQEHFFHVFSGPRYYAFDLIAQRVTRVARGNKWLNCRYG

| Compound | IC50 (MMP-12) | IC50 ([1]; Table 3) | Ki ([1]; Table 3) | IC50 (MMP-8) | IC50 (recombinant human MMP-2) | IC50 ([2]; Table 3) | Ki ([2]; Table 3, read-out: Ki Agg1) | inhibition at 0.14 µM ([1]; Table 3, at 140 (nM), read-out: Agg 2 % at concentration) | IC50 (MMP-1) | IC50 ([1]; Table 1) | bovine [3, 6] | bovine [3, 7] | IC50 [4] | IC50 [5] | Ki [2, 8] | IC50 ([2]; Table 1) |
| --- | --- | --- | --- | --- | --- | --- | --- | --- | --- | --- | --- | --- | --- | --- | --- | --- |
| CC(C)(Cc1ccccc1)NC(=O)[C@H](CCC(=O)O)NC(=O)c1ccc(-c2ccc(Br)s2)cc1 [Example 8OOOOOOOOO, N^2-[4-(5-bromo-2-thienyl)benzoyl]-N-(1,1-dimethyl-2-phenylethyl)-L-α-glutamine] | 372 nM | ~30 nM | 66 nM | 349 nM | 718 nM | < 30 nM | 2.7 nM |  |  |  |  |  |  |  |  |  |
| CC(C)(Cc1ccc(F)cc1)NC(=O)[C@H](CCC(=O)O)NC(=O)c1ccc(-c2ccsc2)cc1 [Example 8UUUUUUU, N-[2-(4-fluorophenyl)-1,1-dimethylethyl]-N^2-[4-(3-thienyl)benzoyl]-L-α-glutamine] | 410 nM | 60 nM | 60 nM | 2030 nM | 5180 nM | < 30 nM | < 3 nM |  |  |  |  |  |  |  |  |  |
| Cc1ccc(-c2ccc(C(=O)N[C@@H](CCC(=O)O)C(=O)NC(C)(C)Cc3ccc(F)cc3)cc2)s1 [Example 8VVVVVVV, N-[2-(4-fluorophenyl)-1,1-dimethylethyl]-N^2-[4-(5-methyl-2-thienyl)benzoyl]-L-α-glutamine] | 770 nM |  | 305 nM | 410 nM | 570 nM | < 30 nM | 7 nM | 51% |  |  |  |  |  |  |  |  |
| CC(C)(Cc1ccc(F)cc1)NC(=O)[C@H](CCC(=O)O)NC(=O)c1ccc(-c2ccc(Br)s2)cc1 [Example 8WWWWWW, N^2-[4-(5-bromo-2-thienyl)benzoyl]-N-[2-(4-fluorophenyl)-1,1-dimethylethyl]-L-α-glutamine] | 5800 nM | 50 nM | 72 nM | 1000 nM | 2600 nM | < 3 nM | 7.1 nM |  |  |  |  |  |  |  |  |  |
| CC(C)(Cc1ccc(Cl)s1)NC(=O)[C@H](CCC(=O)O)NC(=O)c1ccc(-c2cccc(F)c2)cc1 [Example 8XXXXXX, N-[2-(5-chloro-2-thienyl)-1,1-dimethylethyl]-N^2-[(3′-fluorobiphenyl-4-yl)carbonyl]-L-α-glutamine] | 1600 nM | 20 nM | 60 nM | 4100 nM | 7500 nM | < 30 nM | < 3 nM |  |  |  |  |  |  |  |  |  |
| CC(C)(Cc1ccc(Cl)cc1)NC(=O)[C@H](CCC(=O)O)NC(=O)c1ccc(-c2ccc(Cl)cc2)cc1 [Example 8XXXXXXXXX, N^2-[(4′-chlorobiphenyl-4-yl)carbonyl]-N-[2-(4-chlorophenyl)-1,1-dimethylethyl]-L-α-glutamine] | 597 nM | 25 nM | 71.6 nM | 1790 nM | 2610 nM | < 30 nM | 18.2 nM |  |  |  |  |  |  |  |  |  |
| CC(C)(Cc1ccc(F)cc1)NC(=O)[C@H](CCC(=O)O)NC(=O)c1ccc(-c2ccc(F)c(F)c2)cc1 [Example 8YYYYYY, N^2-[(3′,4′-difluorobiphenyl-4-yl)carbonyl]-N-[2-(4-fluorophenyl)-1,1-dimethylethyl]-L-α-glutamine] | 365 nM | 30 nM | 160 nM | 737 nM | 4700 nM | < 30 nM | 13.5 nM |  |  |  |  |  |  |  |  |  |
| O=C(O)CC[C@H](NC(=O)c1ccc(-c2ccccc2)cc1)C(=O)NCc1cccc(-c2cccs2)c1 [Example 10N, N^2-(1,1′-biphenyl-4-ylcarbonyl)-N^1-(3-thien-2-ylbenzyl)-L-α-glutamine] |  |  |  |  | 7600 nM |  |  |  | > 200000 nM | 970 nM | 65% | 24% | > 50000 nM | > 200000 nM | 28 nM | 19 nM |
| C=Cc1ccc(CNC(=O)[C@H](CCC(=O)O)NC(=O)c2ccc(-c3ccccc3)cc2)cc1 [Example 10R, N^2-(1,1′-biphenyl-4-ylcarbonyl)-N^1-(4-vinylbenzyl)-L-α-glutamine] |  |  |  |  | > 20000 nM |  |  |  | > 50000 nM | 1900 nM | 41% | 0% | > 20000 nM | > 200000 nM | 187 nM | 77 nM |
| O=C(O)CC[C@H](NC(=O)c1ccc(-c2cccs2)cc1)C(=O)NCc1ccccc1 [Example 11, N^1-benzyl-N^2-(4-thien-2-ylbenzoyl)-L-α-glutamine] |  |  |  |  | ~1000 nM |  |  |  | ~2000 nM | ~800 nM | 78% | 52% | ~5000 nM | ~2000 nM |  | 110 nM |
| O=C(O)CC[C@H](NC(=O)c1ccc(-c2ccco2)cc1)C(=O)NCc1ccccc1 [Example 12A, N^1-benzyl-N^2-[4-(2-furyl)benzoyl]-L-α-glutamine] |  |  |  |  | ~2000 nM |  |  |  | ~2000 nM | ~5000 nM | 41% | 18% | ~6000 nM | ~2000 nM |  | 700 nM |
| Cc1cc(C)cc(-c2ccc(C(=O)N[C@@H](CCC(=O)O)C(=O)NCc3ccccc3)cc2)c1 [Example 13A, N^1-benzyl-N^2-[(3′,5′-dimethyl-1,1′-biphenyl-4-yl)carbonyl]-L-α-glutamine] |  |  |  |  | ~67000 nM |  |  |  | > 100000 nM | ~67000 nM | 37% | 18% | > 100000 nM | > 100000 nM |  | 1500 nM |
| CCOc1cccc(-c2ccc(C(=O)N[C@@H](CCC(=O)O)C(=O)NCc3ccccc3)cc2)c1 [Example 13D, N^1-benzyl-N^2-[(3′-ethoxy-1,1′-biphenyl-4-yl)carbonyl]-L-α-glutamine] |  |  |  |  | > 200000 nM |  |  |  | > 100000 nM | ~26000 nM | 51% | 25% | > 200000 nM | > 100000 nM |  | 750 nM |
